# Assay results published in patent US20170008888A1 (KYORIN PHARMACEUTICAL CO., LTD., priority 2014, published 2017).
# Read-outs that look alike come from different tables or passages of the source.
# Assays:
# ACK = biological target: T1, ACK (Homo sapiens, UniProt Q07912); experiment: Probe-based (AX9989) kinase profiling in Jurkat lysate: ACK; type: binding
# T1 construct: screened for activity against several kinases in Jurkat cells; endogenous in cells; host or cells: Jurkat cell lysate
# Summary of the method: (§1)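 Jurkat lysate, HEPES pH 7.5 buffer + 20 mM MnCl2; cpd 15 min RT; AX9989 ATP probe 5 μM final, RT. Trypsin digest, streptavidin capture, LC/MS; % inhibition vs vehicle from labeled-peptide signal.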
# JAK1 = biological target: T2, JAK1 (Homo sapiens, UniProt P23458); experiment: Probe-based (AX9989) kinase profiling in Jurkat lysate: JAK1; type: binding
# T2 construct: screened for activity against several kinases in Jurkat cells; endogenous in cells; host or cells: Jurkat cell lysate
# Summary of the method: as §1
# human PBMCs = experiment: Human PBMC TNF-α response to endotoxin (ELISA); type: cell-based; settings: 0.1 μg/ml LPS 16 h, read-out: EC50 for the inhibition of the human PBMC TNF-α response to endotoxin, ave. ± S.D.
# Summary of the method: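 PBMCs at 2e6 cells/ml in RPMI 1640 with 10% charcoal-dextran-treated FBS were pre-treated 1 h at 37 °C with compound (4-point 1:5 dilution from 10 μM). Stimulation with 0.1 μg/ml E. coli 0111:B4 LPS for 16 h; TNF-α measured by ELISA (A450) in 25-fold diluted supernatant.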
# TAO2 = biological target: T3, TAO2 (Homo sapiens, UniProt Q9UL54); experiment: Probe-based (AX9989) kinase profiling in Jurkat lysate: TAO2; type: binding
# T3 construct: screened for activity against several kinases in Jurkat cells; endogenous in cells; host or cells: Jurkat cell lysate
# T3 sequence (Q9UL54 1-1235): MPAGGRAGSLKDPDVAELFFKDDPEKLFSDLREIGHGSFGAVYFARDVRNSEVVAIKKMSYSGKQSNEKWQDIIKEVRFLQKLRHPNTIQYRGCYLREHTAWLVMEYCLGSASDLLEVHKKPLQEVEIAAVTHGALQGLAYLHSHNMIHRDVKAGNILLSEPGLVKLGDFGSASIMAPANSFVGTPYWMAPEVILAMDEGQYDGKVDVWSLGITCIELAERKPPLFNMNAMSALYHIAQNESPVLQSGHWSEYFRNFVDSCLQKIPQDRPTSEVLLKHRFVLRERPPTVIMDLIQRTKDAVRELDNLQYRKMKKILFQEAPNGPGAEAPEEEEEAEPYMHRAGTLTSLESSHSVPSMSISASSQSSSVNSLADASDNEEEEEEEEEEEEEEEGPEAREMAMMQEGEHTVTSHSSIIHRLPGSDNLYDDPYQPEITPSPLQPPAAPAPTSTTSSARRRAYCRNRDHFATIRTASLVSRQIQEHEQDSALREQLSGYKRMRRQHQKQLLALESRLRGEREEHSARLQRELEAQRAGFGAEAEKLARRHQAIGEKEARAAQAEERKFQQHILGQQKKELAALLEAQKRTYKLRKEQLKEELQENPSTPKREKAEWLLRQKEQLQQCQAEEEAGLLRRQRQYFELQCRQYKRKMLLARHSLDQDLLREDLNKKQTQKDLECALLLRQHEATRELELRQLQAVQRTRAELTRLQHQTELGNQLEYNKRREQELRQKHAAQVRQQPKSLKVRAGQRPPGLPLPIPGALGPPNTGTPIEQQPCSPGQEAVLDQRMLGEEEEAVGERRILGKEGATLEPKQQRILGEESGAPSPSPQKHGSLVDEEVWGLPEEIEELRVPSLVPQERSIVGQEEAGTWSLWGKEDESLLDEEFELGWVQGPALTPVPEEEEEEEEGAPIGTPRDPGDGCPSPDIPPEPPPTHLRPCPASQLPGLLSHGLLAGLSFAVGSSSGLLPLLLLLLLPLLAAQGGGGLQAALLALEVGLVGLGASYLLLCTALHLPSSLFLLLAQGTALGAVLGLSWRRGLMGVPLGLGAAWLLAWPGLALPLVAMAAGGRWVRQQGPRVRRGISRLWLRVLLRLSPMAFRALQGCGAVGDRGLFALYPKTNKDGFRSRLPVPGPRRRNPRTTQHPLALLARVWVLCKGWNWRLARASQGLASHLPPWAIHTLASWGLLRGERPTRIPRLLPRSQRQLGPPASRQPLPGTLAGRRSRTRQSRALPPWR
# Summary of the method: as §1
# AurA = biological target: T4, AurA (Homo sapiens, UniProt O14965); experiment: Probe-based (AX9989) kinase profiling in Jurkat lysate: AurA; type: binding
# T4 construct: screened for activity against several kinases in Jurkat cells; endogenous in cells; host or cells: Jurkat cell lysate
# T4 sequence (O14965 1-403): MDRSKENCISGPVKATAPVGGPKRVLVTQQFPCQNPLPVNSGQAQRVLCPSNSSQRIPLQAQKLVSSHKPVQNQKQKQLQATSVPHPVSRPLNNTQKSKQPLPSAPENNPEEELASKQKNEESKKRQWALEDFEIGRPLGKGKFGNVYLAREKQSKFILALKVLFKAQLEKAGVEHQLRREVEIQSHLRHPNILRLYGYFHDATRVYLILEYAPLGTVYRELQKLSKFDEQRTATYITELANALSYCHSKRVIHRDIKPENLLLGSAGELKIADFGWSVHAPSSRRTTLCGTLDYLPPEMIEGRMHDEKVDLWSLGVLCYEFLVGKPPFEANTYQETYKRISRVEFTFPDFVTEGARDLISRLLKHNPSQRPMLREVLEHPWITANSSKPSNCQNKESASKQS
# Summary of the method: as §1
# AurB or AurC = experiment: Probe-based (AX9989) kinase profiling in Jurkat lysate: AurB or AurC; type: binding
# Summary of the method: as §1
# ERK5 = biological target: T5, ERK5 (Homo sapiens, UniProt Q13164); experiment: Probe-based (AX9989 acyl phosphate ATP probe) kinase profiling in Jurkat lysate: ERK5; type: binding; settings: for IC50: Jurkat lysate
# T5 construct: screened for activity against several kinases in Jurkat cells; endogenous in cells; host or cells: Jurkat cell lysate
# Summary of the method: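 Gel-filtered Jurkat lysate (5 mg/ml, 20 mM MnCl2) preincubated 15 min at room temperature with compound, then labelled with 5 μM AX9989 acyl phosphate ATP probe. Probe-labelled ERK5 active-site peptides quantified by LC/MS after trypsin digestion and streptavidin capture; IC50 calculated from percent inhibition at the screening concentration.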
# ABL or ARG = experiment: Probe-based (AX9989) kinase profiling in Jurkat lysate: ABL or ARG; type: binding
# Summary of the method: as §1
# AMPKa1 or AMPKa2 = experiment: Probe-based (AX9989) kinase profiling in Jurkat lysate: AMPKa1 or AMPKa2; type: binding
# Summary of the method: as §1
# [1] = screening concentration 1 μM, read-out: ACK Inhibition % at indicated screening concentration
# [2] = screening concentration 1 μM, read-out: JAK1 Inhibition % at indicated screening concentration
# [3] = screening concentration 1 μM, read-out: TAO2 Inhibition % at indicated screening concentration
# [4] = screening concentration 1 μM, read-out: AurA Inhibition % at indicated screening concentration
# [5] = calculated from percent inhibition and screening concentration, AX9989 probe
# [6] = screening concentration 1 μM, read-out: ERK5 Inhibition % at indicated screening concentration
# T1 sequence (Q07912 whole entry): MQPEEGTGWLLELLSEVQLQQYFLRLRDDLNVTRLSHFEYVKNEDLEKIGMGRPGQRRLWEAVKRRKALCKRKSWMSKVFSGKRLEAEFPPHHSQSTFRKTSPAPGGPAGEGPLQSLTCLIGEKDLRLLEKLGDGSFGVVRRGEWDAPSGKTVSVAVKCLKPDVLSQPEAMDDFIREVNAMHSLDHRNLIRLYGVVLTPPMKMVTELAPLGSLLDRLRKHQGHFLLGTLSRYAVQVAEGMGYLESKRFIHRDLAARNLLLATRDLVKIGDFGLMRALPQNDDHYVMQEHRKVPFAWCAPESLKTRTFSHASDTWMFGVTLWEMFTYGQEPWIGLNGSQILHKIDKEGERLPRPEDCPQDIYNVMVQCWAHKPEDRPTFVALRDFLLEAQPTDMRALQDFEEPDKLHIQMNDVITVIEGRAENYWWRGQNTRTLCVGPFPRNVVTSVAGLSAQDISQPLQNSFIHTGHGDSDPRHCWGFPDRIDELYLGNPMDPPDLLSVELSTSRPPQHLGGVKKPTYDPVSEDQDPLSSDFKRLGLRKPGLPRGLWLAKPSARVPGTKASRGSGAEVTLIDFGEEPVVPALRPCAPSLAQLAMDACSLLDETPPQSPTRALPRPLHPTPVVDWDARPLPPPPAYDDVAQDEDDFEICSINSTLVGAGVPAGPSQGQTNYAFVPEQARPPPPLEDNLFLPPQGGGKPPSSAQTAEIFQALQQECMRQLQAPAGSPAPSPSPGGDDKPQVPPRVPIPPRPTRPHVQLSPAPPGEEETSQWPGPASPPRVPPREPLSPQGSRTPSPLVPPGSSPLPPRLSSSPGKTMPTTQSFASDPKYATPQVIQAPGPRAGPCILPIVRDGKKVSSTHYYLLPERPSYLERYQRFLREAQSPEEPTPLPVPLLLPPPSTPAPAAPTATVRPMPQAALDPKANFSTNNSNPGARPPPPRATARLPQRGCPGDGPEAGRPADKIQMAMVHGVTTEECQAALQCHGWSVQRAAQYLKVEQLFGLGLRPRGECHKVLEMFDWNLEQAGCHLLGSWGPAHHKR
# T2 sequence (P23458 whole entry): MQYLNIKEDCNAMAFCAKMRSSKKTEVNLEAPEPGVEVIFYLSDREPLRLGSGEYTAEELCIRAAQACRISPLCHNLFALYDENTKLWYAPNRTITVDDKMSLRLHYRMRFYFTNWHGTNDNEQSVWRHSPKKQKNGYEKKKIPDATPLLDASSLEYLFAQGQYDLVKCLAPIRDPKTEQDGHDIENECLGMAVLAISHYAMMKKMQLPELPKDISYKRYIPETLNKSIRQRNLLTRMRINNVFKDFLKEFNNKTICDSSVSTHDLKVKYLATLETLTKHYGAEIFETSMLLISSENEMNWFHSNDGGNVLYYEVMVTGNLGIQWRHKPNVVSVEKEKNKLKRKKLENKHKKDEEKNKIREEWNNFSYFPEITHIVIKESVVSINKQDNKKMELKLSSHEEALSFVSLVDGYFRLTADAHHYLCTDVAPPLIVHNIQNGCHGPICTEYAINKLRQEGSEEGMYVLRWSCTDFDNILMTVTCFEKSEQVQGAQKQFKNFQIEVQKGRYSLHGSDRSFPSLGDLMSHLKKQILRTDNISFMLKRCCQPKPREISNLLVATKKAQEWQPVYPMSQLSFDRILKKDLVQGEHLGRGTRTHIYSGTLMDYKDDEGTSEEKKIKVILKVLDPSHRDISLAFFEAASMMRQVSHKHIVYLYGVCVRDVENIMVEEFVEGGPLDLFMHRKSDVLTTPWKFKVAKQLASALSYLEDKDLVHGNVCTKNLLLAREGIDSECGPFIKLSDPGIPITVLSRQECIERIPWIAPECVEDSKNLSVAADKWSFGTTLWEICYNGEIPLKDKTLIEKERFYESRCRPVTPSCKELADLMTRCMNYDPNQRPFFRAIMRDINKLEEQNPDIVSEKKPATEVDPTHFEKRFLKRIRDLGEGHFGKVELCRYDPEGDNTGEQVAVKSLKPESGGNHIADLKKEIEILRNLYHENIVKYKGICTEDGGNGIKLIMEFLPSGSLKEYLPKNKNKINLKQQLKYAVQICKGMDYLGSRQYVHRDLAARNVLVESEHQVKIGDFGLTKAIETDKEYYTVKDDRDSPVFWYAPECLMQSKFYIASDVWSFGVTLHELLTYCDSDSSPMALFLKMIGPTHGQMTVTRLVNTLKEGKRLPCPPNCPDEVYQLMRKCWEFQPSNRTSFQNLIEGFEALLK
# T5 sequence (Q13164 whole entry): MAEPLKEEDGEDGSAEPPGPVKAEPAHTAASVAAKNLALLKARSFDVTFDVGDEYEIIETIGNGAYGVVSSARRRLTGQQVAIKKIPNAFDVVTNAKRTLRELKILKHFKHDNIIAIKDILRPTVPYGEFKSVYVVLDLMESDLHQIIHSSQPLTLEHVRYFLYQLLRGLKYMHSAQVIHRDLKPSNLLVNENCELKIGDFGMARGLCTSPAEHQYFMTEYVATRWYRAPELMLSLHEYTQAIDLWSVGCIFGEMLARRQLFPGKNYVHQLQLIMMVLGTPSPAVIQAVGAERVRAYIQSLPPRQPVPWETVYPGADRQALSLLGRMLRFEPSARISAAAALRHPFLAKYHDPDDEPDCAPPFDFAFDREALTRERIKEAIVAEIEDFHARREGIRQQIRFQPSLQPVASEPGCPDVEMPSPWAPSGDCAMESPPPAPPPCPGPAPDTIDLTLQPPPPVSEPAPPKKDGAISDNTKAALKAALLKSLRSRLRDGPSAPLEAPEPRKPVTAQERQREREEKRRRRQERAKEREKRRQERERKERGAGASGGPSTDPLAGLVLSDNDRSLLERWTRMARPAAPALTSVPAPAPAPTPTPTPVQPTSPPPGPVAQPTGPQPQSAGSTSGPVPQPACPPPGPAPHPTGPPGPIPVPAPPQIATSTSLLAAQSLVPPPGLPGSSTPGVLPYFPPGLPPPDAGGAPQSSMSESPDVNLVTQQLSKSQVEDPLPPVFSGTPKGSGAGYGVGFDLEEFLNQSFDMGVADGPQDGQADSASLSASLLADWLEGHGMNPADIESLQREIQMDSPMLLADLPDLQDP
Compound,EC50 (human PBMCs),inhibition at 1 µM (ACK; [1]),inhibition at 1 µM (JAK1; [2]),inhibition at 1 µM (TAO2; [3]),inhibition at 1 µM (AurA; [4]),AurB or AurC Inhibition % at indicated screening concentration (AurB or AurC; screening concentration 1 μM),IC50 (ERK5; [5]),inhibition at 1 µM (ERK5; [6]),ABL or ARG Inhibition % at indicated screening concentration (ABL or ARG; screening concentration 1 μM),AMPKa1 or AMPKa2 Inhibition % at indicated screening concentration (AMPKa1 or AMPKa2; screening concentration 1 μM),further results
COc1cc(C)c(Nc2cc3c(cn2)N(C)C(=O)c2ccccc2N3C)cn1 [Compound 116],4370 nM,,,,,,,,,,"inhibition at 1 µM (ACK; screening concentration 1.0 μM, read-out: Kinase inhibition % at indicated screening concentration: ACK): ≤ 35%; inhibition at 1 µM (JAK1; screening concentration 1.0 μM, read-out: Kinase inhibition % at indicated screening concentration: JAK1): ≤ 35%; inhibition at 1 µM (TAO2; screening concentration 1.0 μM, read-out: Kinase inhibition % at indicated screening concentration: TAO2): ≤ 35%; inhibition at 1 µM (AurA; screening concentration 1.0 μM, read-out: Kinase inhibition % at indicated screening concentration: AurA): ≤ 35%; Kinase inhibition % at indicated screening concentration: AurB or AurC (AurB or AurC; screening concentration 1.0 μM): E (E is ≦35%); IC50 (ERK5; calculated from percent inhibition of AX9989 labeling and the screening concentration): > 500 nM; inhibition at 1 µM (ERK5; screening concentration 1.0 μM, read-out: Kinase inhibition % at indicated screening concentration: ERK5): 50 to 75%; Kinase inhibition % at indicated screening concentration: ABL or ARG (ABL or ARG; screening concentration 1.0 μM): E (E is ≦35%); Kinase inhibition % at indicated screening concentration: AMPKa1 or AMPKa2 (AMPKa1 or AMPKa2; screening concentration 1.0 μM): E (E is ≦35%)"
CCOc1cc(C(=O)N2CCC(N3CCCC3)CC2)ccc1Nc1cc2c(cn1)N(C)C(=O)c1scnc1N2C [Compound T6],400 nM,≤ 35%,≤ 35%,≤ 35%,≤ 35%,E (E is ≦35%),≤ 50 nM,> 90%,E (E is ≦35%),E (E is ≦35%),
CCOc1cc(C(=O)N2CCCNCC2)ccc1Nc1cc2c(cn1)N(C)C(=O)c1scnc1N2C [Compound T7],340 nM,≤ 35%,≤ 35%,≤ 35%,≤ 35%,E (E is ≦35%),50 to 100 nM,> 90%,E (E is ≦35%),E (E is ≦35%),
CCOc1cc(C(=O)N[C@H]2CC[C@H](C#N)CC2)ccc1Nc1cc2c(cn1)N(C)C(=O)c1ccccc1N2C [Compound T59],720 nM,≤ 35%,≤ 35%,≤ 35%,≤ 35%,E (E is ≦35%),101 to 500 nM,50 to 75%,E (E is ≦35%),E (E is ≦35%),
CCOc1cc(C(=O)N2CCC(N3CCCC3)CC2)ccc1Nc1cc2c(cn1)N(C)C(=O)N1C=CC=CC1=N2 [Compound T66],> 10000 nM,,,,,,> 500 nM,,,,"inhibition at 10 µM (ACK; screening concentration 10 μM, read-out: ACK Inhibition % at indicated screening concentration): 50 to 75%; inhibition at 10 µM (JAK1; screening concentration 10 μM, read-out: JAK1 Inhibition % at indicated screening concentration): ≤ 35%; inhibition at 10 µM (TAO2; screening concentration 10 μM, read-out: TAO2 Inhibition % at indicated screening concentration): ≤ 35%; inhibition at 10 µM (AurA; screening concentration 10 μM, read-out: AurA Inhibition % at indicated screening concentration): ≤ 35%; AurB or AurC Inhibition % at indicated screening concentration (AurB or AurC; screening concentration 10 μM): E (E is ≦35%); inhibition at 10 µM (ERK5; screening concentration 10 μM, read-out: ERK5 Inhibition % at indicated screening concentration): 35 to 50%; ABL or ARG Inhibition % at indicated screening concentration (ABL or ARG; screening concentration 10 μM): E (E is ≦35%); AMPKa1 or AMPKa2 Inhibition % at indicated screening concentration (AMPKa1 or AMPKa2; screening concentration 10 μM): E (E is ≦35%)"
CCOc1cc(C(=O)N2CCN(C(C)=O)CC2)ccc1Nc1cc2c(cn1)N(C)C(=O)c1ccccc1N2C1CC1 [Compound T67],4900 nM,35 to 50%,≤ 35%,≤ 35%,≤ 35%,E (E is ≦35%),≤ 50 nM,> 90%,E (E is ≦35%),E (E is ≦35%),
CCOc1cc(C(=O)N2CC[C@@H](N3CCN(C)CC3)C2)ccc1Nc1cc2c(cn1)N(C)C(=O)c1ccccc1N2C1CC1 [Compound T68],1400 nM,≤ 35%,≤ 35%,≤ 35%,≤ 35%,E (E is ≦35%),≤ 50 nM,> 90%,E (E is ≦35%),E (E is ≦35%),
CN1CCN([C@@H]2CCN(C(=O)c3ccc(Nc4cc5c(cn4)N(C)C(=O)c4ccccc4N5C)c(F)c3)C2)CC1 [Compound T69],3480 nM,35 to 50%,≤ 35%,≤ 35%,≤ 35%,E (E is ≦35%),≤ 50 nM,> 90%,E (E is ≦35%),E (E is ≦35%),
